Measured values reported in US7939689B2, “Short-acting sedative hypnotic agents for anesthesia and sedation” (Theravance, Inc., priority 2002, dated 2011).

What was measured:
rats = assay: Test A: administration by infusion (rats), recovery after termination of infusion; assay type: in vivo, rat (Sprague-Dawley)
Protocol: (§1) Test compounds, e.g., representative compounds of the invention as well as the comparison compound, propanidid, were formulated in (1) 10% cremophor EL/90% D5W (5% dextrose in distilled water) (2) 10% Liposyn® III (Intravenous Fat Emulsion, containing (per 100 mL) 10 g soybean oil, 1.2 g egg phosphatides and […]), available from Abbott Laboratories, North Chicago, Ill.; and (3) injections (10) or (11) (as described in Example 16) with Miglyol® 810 (caprylic/capric glyceride). Typically, formulation (1) above was used for bolus dosing and formulations (2) or (3) for infusion dosing. Compounds of the invention and propanidid were synthesized as described in Examples 1-15 below. Propofol formulated in soybean oil, sold as Diprivan® injectable emulsion was obtained from AstraZeneca (Wilmington, Del.).
Administration by Infusion (Rats)
Rats (adult Sprague-Dawley) were placed in a perspex restrainer and anesthesia induced by bolus injection via the tail vein (0.15-1 mL/kg over approximately 3 seconds at a dose, estimated from the earlier bolus experiments, to produce anesthesia of approximately 2 minutes duration). Immediately after bolus administration, an infusion (with a duration of typically 20, 180 or 300 minutes), via the tail vein, was commenced (0.075-0.5 mL/kg/min at a half of the bolus dose/min). In some experiments, the initial infusion rate was maintained throughout, while in others, the rate was modified as necessary to maintain a consistent depth of anesthesia (as defined by moderate paw withdrawal in response to noxious pinch). Following completion of the infusion, duration of anesthesia (i.e. duration of loss of righting reflex) and behavioral recovery (i.e. duration of ataxia, sedation or lethargy following return of the righting reflex) was recorded.
Administration by infusion (rats): Recovery times following termination of administration by infusion in rats were determined for compound 1 and for the comparison compounds propofol and propanidid. The duration of the loss of righting reflex (in minutes) following termination of infusion is given as a function of duration of infusion in Table 2 below.

guinea pigs = assay: Test A: bolus administration (guinea pigs), loss of righting reflex; assay type: in vivo, guinea pig; settings: bolus via ear vein, calculated from dose response
Protocol: as §1
Bolus Administration (Guinea Pigs)
Adult male guinea pigs were dosed by bolus administration (0.1-0.25 mL volume) via an ear vein. Duration of loss of righting reflex was measured as described above for rats.
Bolus administration (guinea pigs): The potency of compound 1 was also tested in guinea pigs by the analogous procedure. The dose of compound 1 required to produce 2 minutes of loss of righting reflex in guinea pigs was calculated to be 8 mg/kg, as compared with a dose of 13 mg/kg for propanidid.

[1] = 20 minute Infusion via tail vein

Structure (SMILES) | Duration of Loss of Righting Reflex Following Termination of Infusion (rats; [1]) [min] | Duration of Loss of Righting Reflex Following Termination of Infusion (rats; 3 hour Infusion via tail vein) [min] | Duration of Loss of Righting Reflex Following Termination of Infusion (rats; 5 hour Infusion via tail vein) [min] | dose required to produce 2 minutes of loss of righting reflex (guinea pigs) [mg/kg]
CC(C)c1cccc(C(C)C)c1O [Propofol, 2,6-diisopropylphenol] | 30.0 ± 2.9 | 47.8 ± 5.3 | 59.0 ± 1.4 | 
CCCOC(=O)Cc1ccc(OCC(=O)N(CC)CC)c(OCC)c1 [Compound 1, [4-[(N,N-Diethylcarbamoyl)methoxy]-3-ethoxyphenyl]acetic acid propyl ester] | 1.4 ± 0.1 | 1.7 ± 0.1 | 2.6 ± 1.0 | 8
CCCOC(=O)Cc1ccc(OCC(=O)N(CC)CC)c(OC)c1 [Propanidid, [4-[(N,N-diethylcarbamoyl)methoxy]-3-methoxyphenyl]acetic acid propyl ester] | 1.6 ± 0.2 | 1.4 ± 0.1 |  | 13
